Patent US5374601A, “Thermal transfer sheet” (Dai Nippon Printing Co., Ltd., priority 1991, dated 1994)

Tested on: Salmonella TA1538 and TA98
Assay: Ames test (preincubation method, metabolically activated, +x9mix)
Conditions: 0 to 5 mg; for Increase (times): maximum increase in the colony of the sample as compared with the solvent control: acetone as solvent control; for Toxicity (mutagenicity): judged against solvent control
Procedure: Ames test was conducted as an identical amest test with respect to representative examples of the intermediate of the present invention and control dyes having the same structure as that of the intermediate of the present invention, except that the ring was a pyridine ring instead of the phenyl ring.
The ames test was conducted in such a state that Salmonella TA1538 and TA98 were metabolically activated by a preincubation method (+x9mix). The dye was used in contentrations in five grades in the range of from 0 to 5 mg. Acetone was used as the solvent control. The toxicity was judged based on the maximum increase in the colony of the sample as compared with the solvent control. Specifically, when the increase in the reversion colony was twice or more as compared with that in the case of the control, the mutagenicity was judged as positive, while when the increase in the reversion colony was less than twice as compared with that in the case of the control, the mutagenicity was judged as negative.

Row | SMILES | Increase (times): maximum increase in the colony of the sample as compared with the solvent control [times] | Toxicity (mutagenicity)
1 | CCN(CC)c1ccc(N=Nc2cn(-c3ccccc3)nc2C)cn1 | 1.5 | neg- ative
2 | CCN(CC)c1ccc(N=C2C=C(NC(C)=O)C(=O)C(Cl)=C2C)cn1 | 1.5 | neg- ative
3 | CCN(CC)c1ccc(N=Nc2cn(-c3ccccc3)nc2C)cc1 | 2.2 | pos- itive
4 | CCN(CC)c1ccc(N=C2C=C(NC(C)=O)C(=O)C(Cl)=C2C)cc1 | 1.7 | neg- ative
